Data from ChEMBL document CHEMBL4725221, “Thiazoles, Their Benzofused Systems, and Thiazolidinone Derivatives: Versatile and Promising Tools to Combat Antibiotic Resistance” (J Med Chem, 2020).
Values after ≈ are worked out from the molar mass of the structure shown. Values belong to the compound of their own block, whether it stands above or below them.

Assays:
Escherichia coli [1] = assay: Antibacterial activity against Escherichia coli AG102; format: functional
Escherichia coli [2] = assay: Antibacterial activity against Escherichia coli AG102 in presence of ciprofloxacin; format: functional
Staphylococcus aureus [3] = assay: Antibacterial activity against Staphylococcus aureus; format: functional
Escherichia coli [4] = assay: Antibacterial activity against Escherichia coli; format: functional
Raoultella planticola = assay: Antibacterial activity against Klebsiella planticola; format: functional
Staphylococcus aureus [5] = assay: Antibacterial activity against Staphylococcus aureus MLS16; format: functional
Pseudomonas aeruginosa [6] = assay: Antibacterial activity against Pseudomonas aeruginosa; format: functional
Bacillus subtilis [7] = assay: Antibacterial activity against Bacillus subtilis; format: functional
Micrococcus luteus = assay: Antibacterial activity against Micrococcus luteus; format: functional
Enterococcus faecalis [8] = assay: Antibiofilm activity against Enterococcus faecalis; format: functional
Enterococcus faecalis [9] = assay: Antibacterial activity against Enterococcus faecalis; format: functional
[10] = system: Staphylococcus saprophyticus; assay: Antibacterial activity against Staphylococcus saprophyticus; format: functional
Pseudomonas aeruginosa [11] = assay: Antibacterial activity against Pseudomonas aeruginosa MTCC 2453 after 7 days by two-fold serial dilution method; format: functional; settings: MTCC 2453, 168 h, time 7 day
Staphylococcus aureus [12] = assay: Antibacterial activity against Staphylococcus aureus MTCC 121 after 7 days by two-fold serial dilution method; format: functional; settings: MTCC 121, 168 h, time 7 day
Escherichia coli [13] = assay: Antibacterial activity against Escherichia coli MTCC 40 after 7 days by two-fold serial dilution method; format: functional; settings: MTCC 40, 168 h, time 7 day
Bacillus subtilis [14] = assay: Antibacterial activity against Bacillus subtilis […] after 7 days by two-fold serial dilution method; format: functional; settings: 168 h, time 7 day
Staphylococcus aureus [15] = assay: Antibacterial activity against Staphylococcus aureus ATCC 25923 by CLSI protocol based microdilution method; format: functional, organism-based
Staphylococcus aureus [16] = assay: Antibacterial activity against Staphylococcus aureus ATCC 6538 by CLSI protocol based microdilution method; format: functional, organism-based
Staphylococcus aureus [17] = assay: Antibacterial activity against Staphylococcus aureus ATCC 49444 after 24 hrs by CLSI protocol based cup-plate agar diffusion method; format: functional
Pseudomonas aeruginosa [18] = assay: Antibacterial activity against Pseudomonas aeruginosa ATCC 27853 after 24 hrs by CLSI protocol based cup-plate agar diffusion method; format: functional
Listeria monocytogenes = assay: Antibacterial activity against Listeria monocytogenes ATCC 19115 after 24 hrs by CLSI protocol based cup-plate agar diffusion method; format: functional
Salmonella typhimurium = assay: Antibacterial activity against Salmonella typhimurium ATCC 14028 after 24 hrs by CLSI protocol based cup-plate agar diffusion method; format: functional, Salmonella enterica subsp. enterica serovar Typhimurium; settings: Salmonella enterica

SMILES: O=C(Nc1ccc(-c2nc3ccccc3s2)cc1)c1ccccc1
MIC (Escherichia coli [1]): 256 µg/mL (≈ 775 µM)
MIC (Escherichia coli [2]): 0.03 µg/mL

SMILES: O=C(Nc1ccc(Cc2nc3ccccc3s2)cc1)c1ccc(Br)cc1
MIC (Escherichia coli [1]): 128 µg/mL (≈ 302 µM)
MIC (Escherichia coli [2]): 0.03 µg/mL

SMILES: CCCCOc1ccc(C(=O)Nc2ccc(-c3nc4ccccc4s3)cc2)cc1
MIC (Escherichia coli [1]): 64 µg/mL (≈ 159 µM)
MIC (Escherichia coli [2]): 0.5 µg/mL

SMILES: O=c1oc2c(Br)cccc2cc1-c1csc(N/N=C/c2cn(-c3nc4ccccc4s3)nc2-c2cc3ccccc3oc2=O)n1
MIC (Staphylococcus aureus [3]): 7.8 µg/mL (≈ 11.2 µM)
MIC (Escherichia coli [4]): 7.8 µg/mL (≈ 11.2 µM)
MIC (Raoultella planticola): 7.8 µg/mL (≈ 11.2 µM)
MIC (Staphylococcus aureus [5]): 7.8 µg/mL (≈ 11.2 µM)
MIC (Pseudomonas aeruginosa [6]): 7.8 µg/mL (≈ 11.2 µM)
MIC (Bacillus subtilis [7]): 3.9 µg/mL (≈ 5.62 µM)
MIC (Micrococcus luteus): 7.8 µg/mL (≈ 11.2 µM)

SMILES: O=C(NN1C(=O)/C(=C/c2cccc([N+](=O)[O-])c2)SC1c1ccccc1)c1ccc(-c2ccccc2)cc1 (stereo not given)
MIC (Pseudomonas aeruginosa [11]): 3.12 µg/mL (≈ 6.15 µM)
MIC (Staphylococcus aureus [12]): 3.12 µg/mL (≈ 6.15 µM)
MIC (Escherichia coli [13]): 6.25 µg/mL (≈ 12.3 µM)
MIC (Bacillus subtilis [14]): 1.56 µg/mL (≈ 3.07 µM)

SMILES: COc1ccc(-c2csc(-c3cccc(-c4csc(-c5ccccc5)n4)c3)n2)cc1
MBIC (Enterococcus faecalis [8]): 0.004 mg/mL
MIC (Enterococcus faecalis [9]): 62 µg/mL (≈ 145 µM)
MIC [10]: 125 µg/mL (≈ 293 µM)

SMILES: CCc1ccc(C(=O)Nc2ccc(-c3nc4ccccc4s3)cc2)cc1
MIC (Escherichia coli [1]): 128 µg/mL (≈ 357 µM)
MIC (Escherichia coli [2]): 0.016 µg/mL

SMILES: Cc1ccc(-c2csc(N/N=C/c3cn(-c4nc5ccccc5s4)nc3-c3cc4ccccc4oc3=O)n2)cc1
MIC (Staphylococcus aureus [3]): 7.8 µg/mL (≈ 13.9 µM)
MIC (Escherichia coli [4]): 7.8 µg/mL (≈ 13.9 µM)
MIC (Raoultella planticola): 3.9 µg/mL (≈ 6.96 µM)
MIC (Staphylococcus aureus [5]): 7.8 µg/mL (≈ 13.9 µM)
MIC (Pseudomonas aeruginosa [6]): 3.9 µg/mL (≈ 6.96 µM)
MIC (Bacillus subtilis [7]): 1.9 µg/mL (≈ 3.39 µM)
MIC (Micrococcus luteus): 3.9 µg/mL (≈ 6.96 µM)

SMILES: O=C(Cc1ccccc1)Nc1ccc(-c2nc3ccccc3s2)cc1
MIC (Escherichia coli [1]): 256 µg/mL (≈ 743 µM)
MIC (Escherichia coli [2]): 0.125 µg/mL

SMILES: CCc1ccc(C(=O)Nc2ccc(Cc3nc4ccccc4s3)cc2)cc1
MIC (Escherichia coli [1]): 64 µg/mL (≈ 172 µM)
MIC (Escherichia coli [2]): 0.06 µg/mL

SMILES: CC(C)(C)OC(=O)NCCn1cc(-c2nc(-c3c[nH]c4ccccc34)cs2)c2ccccc21
IC50 (Staphylococcus aureus [15]): 3.9 µg/mL (≈ 8.5 µM)
IC50 (Staphylococcus aureus [16]): 5.2 µg/mL (≈ 11.3 µM)

SMILES: O=c1oc2ccccc2cc1-c1nn(-c2nc3ccccc3s2)cc1/C=N/Nc1nc(-c2ccc(-c3ccccc3)cc2)cs1
MIC (Staphylococcus aureus [3]): 7.8 µg/mL (≈ 12.5 µM)
MIC (Escherichia coli [4]): 7.8 µg/mL (≈ 12.5 µM)
MIC (Raoultella planticola): 31.2 µg/mL (≈ 50.1 µM)
MIC (Staphylococcus aureus [5]): 7.8 µg/mL (≈ 12.5 µM)
MIC (Pseudomonas aeruginosa [6]): 7.8 µg/mL (≈ 12.5 µM)
MIC (Bacillus subtilis [7]): 7.8 µg/mL (≈ 12.5 µM)
MIC (Micrococcus luteus): 7.8 µg/mL (≈ 12.5 µM)

SMILES: Cc1nc(-c2ccccc2)sc1-c1nnc(S)n1/N=C\c1ccc(F)cc1
MIC (Staphylococcus aureus [17]): 31.2 µg/mL (≈ 78.9 µM)
MIC (Pseudomonas aeruginosa [18]): 1.9 µg/mL (≈ 4.8 µM)
MIC (Listeria monocytogenes): 1.9 µg/mL (≈ 4.8 µM)
MIC (Salmonella typhimurium): 62.5 µg/mL (≈ 158 µM)

SMILES: O=C(Nc1ccc(Cc2nc3ccccc3s2)cc1)c1ccc([N+](=O)[O-])cc1
MIC (Escherichia coli [1]): 128 µg/mL (≈ 329 µM)
MIC (Escherichia coli [2]): 0.06 µg/mL

SMILES: O=C(NN1C(=O)/C(=C/c2ccccc2)SC1c1cccc(Br)c1)c1ccc(-c2ccccc2)cc1 (stereo not given)
MIC (Pseudomonas aeruginosa [11]): 3.12 µg/mL (≈ 5.76 µM)
MIC (Staphylococcus aureus [12]): 3.12 µg/mL (≈ 5.76 µM)
MIC (Escherichia coli [13]): 6.25 µg/mL (≈ 11.5 µM)
MIC (Bacillus subtilis [14]): 3.12 µg/mL (≈ 5.76 µM)

SMILES: O=[N+]([O-])c1ccc(-c2csc(-c3cccc(-c4csc(-c5ccccc5)n4)c3)n2)cc1
MBIC (Enterococcus faecalis [8]): 0.002 mg/mL
MIC (Enterococcus faecalis [9]): 62 µg/mL (≈ 140 µM)
MIC [10]: 32 µg/mL (≈ 72.5 µM)

SMILES: O=C(NN1C(=O)/C(=C/c2cccc(Br)c2)SC1c1cccc(Br)c1)c1ccc(-c2ccccc2)cc1 (stereo not given)
MIC (Pseudomonas aeruginosa [11]): 6.25 µg/mL (≈ 10.1 µM)
MIC (Staphylococcus aureus [12]): 3.12 µg/mL (≈ 5.03 µM)
MIC (Escherichia coli [13]): 6.25 µg/mL (≈ 10.1 µM)
MIC (Bacillus subtilis [14]): 3.12 µg/mL (≈ 5.03 µM)

SMILES: O=C(Cc1ccc(F)cc1)Nc1ccc(-c2nc3ccccc3s2)cc1
MIC (Escherichia coli [1]): 128 µg/mL (≈ 353 µM)
MIC (Escherichia coli [2]): 0.03 µg/mL

SMILES: COc1cccc(/C=N\n2c(S)nnc2-c2sc(-c3ccccc3)nc2C)c1
MIC (Staphylococcus aureus [17]): 31.2 µg/mL (≈ 76.6 µM)
MIC (Pseudomonas aeruginosa [18]): 1.9 µg/mL (≈ 4.66 µM)
MIC (Listeria monocytogenes): 1.9 µg/mL (≈ 4.66 µM)
MIC (Salmonella typhimurium): 31.2 µg/mL (≈ 76.6 µM)

Further lines, with some results ahead:

MIC (Enterococcus faecalis [9]): 125 µg/mL (≈ 315 µM)
MIC [10]: 32 µg/mL (≈ 80.7 µM)
SMILES: c1ccc(-c2csc(-c3cccc(-c4csc(-c5ccccc5)n4)c3)n2)cc1
MBIC (Enterococcus faecalis [8]): 0.002 mg/mL

MIC (Escherichia coli [1]): 512 µg/mL (≈ 1320 µM)
MIC (Escherichia coli [2]): 0.004 µg/mL
SMILES: O=C(CCCCc1ccccc1)Nc1ccc(-c2nc3ccccc3s2)cc1

MIC (Staphylococcus aureus [17]): 31.2 µg/mL (≈ 69.5 µM)
MIC (Pseudomonas aeruginosa [18]): 1.9 µg/mL (≈ 4.24 µM)
MIC (Listeria monocytogenes): 1.9 µg/mL (≈ 4.24 µM)
MIC (Salmonella typhimurium): 62.5 µg/mL (≈ 139 µM)
SMILES: CCN(CC)c1ccc(/C=N\n2c(S)nnc2-c2sc(-c3ccccc3)nc2C)cc1

MIC (Pseudomonas aeruginosa [11]): 12.5 µg/mL (≈ 21.9 µM)
MIC (Staphylococcus aureus [12]): 3.12 µg/mL (≈ 5.46 µM)
MIC (Escherichia coli [13]): 1.56 µg/mL (≈ 2.73 µM)
MIC (Bacillus subtilis [14]): 1.56 µg/mL (≈ 2.73 µM)
SMILES: COc1ccc(/C=C2\SC(c3cccc(Br)c3)N(NC(=O)c3ccc(-c4ccccc4)cc3)C2=O)cc1 (stereo not given)

MIC (Enterococcus faecalis [9]): 62 µg/mL (≈ 147 µM)
MIC [10]: 16 µg/mL (≈ 38 µM)
SMILES: N#Cc1ccc(-c2csc(-c3cccc(-c4csc(-c5ccccc5)n4)c3)n2)cc1
MBIC (Enterococcus faecalis [8]): 0.002 mg/mL

MIC (Pseudomonas aeruginosa [11]): 12.5 µg/mL (≈ 25.1 µM)
MIC (Staphylococcus aureus [12]): 3.12 µg/mL (≈ 6.28 µM)
MIC (Escherichia coli [13]): 3.12 µg/mL (≈ 6.28 µM)
MIC (Bacillus subtilis [14]): 6.25 µg/mL (≈ 12.6 µM)
SMILES: O=C(NN1C(=O)/C(=C/c2ccc(Cl)cc2)SC1c1ccccc1)c1ccc(-c2ccccc2)cc1 (stereo not given)

IC50 (Staphylococcus aureus [15]): 2.9 µg/mL (≈ 5.68 µM)
IC50 (Staphylococcus aureus [16]): 18.8 µg/mL (≈ 36.8 µM)
SMILES: COCCn1cc(-c2csc(-c3cn(CCOC)c4ccc(Br)cc34)n2)c2ccccc21

MIC (Enterococcus faecalis [9]): 250 µg/mL (≈ 609 µM)
MIC [10]: > 1000 µg/mL
SMILES: Cc1sc(-c2cccc(-c3csc(-c4ccccc4)n3)c2)nc1-c1ccccc1
MBIC (Enterococcus faecalis [8]): 0.004 mg/mL
